Earlier results as cited in US8697660B2, “Compounds and compositions for treating infection” (International Patent Holdings LLC, priority 2011, dated 2014).

System: HIV-1

For Prunellin, which “minimum inhibition concentration against HIV-1 in vitro” value is on record?
The value was 2.2 µg/mL.
